From patent US20240216513A1, “FATTY ACID-BIFUNCTIONAL DEGRADER CONJUGATES AND THEIR METHODS OF USE” (Novartis AG, priority 2021, published 2024)

System: TMD8 tumors
Test: Efficacy in ectopic (subcutaneous) TMD8 tumor-bearing SCID/BEIGE mice, tumor volume
Format: in vivo, mouse
Conditions: 20 mgL/kg (unconjugated V)
Description: All animal experiments were performed according to procedures covered by permit number BS-1974, BS-1975 and BS-2904 issued by the Kantonales Veterinäramt Basel-Stadt and strictly adhered to the Eidgenössisches Tierschutzgesetz and the Eidgenössische Tierschutzverordnung. Female Sprague Dawley rat were obtained from Charles Rivers (Germany), female Balb/c mice from Charles Rivers (Italy) and female SCID/BEIGE (C.B-Igh-1b/GbmsTac-Prkdcscid-Lystbg N7) mice from Taconic. All the animals were housed in a pathogen-controlled environment with access to food and water ad libitum and they were identified with transponders.
Subcutaneous TMD8 tumors were induced by injecting tumor cells expanded in vitro in the right flank of SCID/BEIGE mice. As soon as the injection was finished, antagonization (naloxone, flumazenil and atipamezole injected s.c.) was injected and mice are put on a warming pad for recovery and carefully checked during that time.
For PK experiments, non-tumor bearing mice or rats were treated once (10 mL/kg) with a compound either i.v. or s.c. Serial blood samplings from the tail vein (5-20 μl) were collected during the course of the experiment. For PK/PD experiments in tumor-bearing mice, compound was administered once (10 mL/kg) either i.v. or s.c. Animals were randomized into groups of n=3 and tissue samples were collected at several time points. At the times indicated, animals were anaesthetized by exposure to 2-3% v/v isoflurane in medical oxygen. They were sacrificed without recovering from anesthetic after blood sampling into commercially prepared EDTA coated tubes (Milian, cat #TOM-14C) in order to extract plasma. The tissues were excised, weighted and rapidly frozen in liquid nitrogen. Later, tumors were cryogenic dry pulverized with the CryoPrep™ system (model CP-02, Covaris). For efficacy experiments in ectopic tumor-bearing mice, animals were randomized into groups of n=6 for a mean tumor size of 100 mm^3 and compound was administered either i.v. q3w or s.c. q2w. When implanted in brain, animals were randomized into groups of n=4 for a mean bioluminescence of 1.0-2.0E+06 [p/s]/[ρW/cm^2] and compound was administered i.v. qw. Tumor response were reported with the measures of tumor volumes or bioluminescence from the treatment start. Concentrations of compound in blood and tissues were determined simultaneously by UPLC/MS-MS. BTK and IL-10 levels in tumor were determined by Meso Scale Discovery (MSD).

With `COc1ccc(C(=O)N2CCC3(CCN(CCc4ccc(-c5cc6c(-c7cc(F)cc(NC(=O)c8ccc(C(C)(C)O)cc8F)c7C)ncnc6[nH]5)cc4)CC3)CC2)cc1N1CCC(=O)NC1=O` [Compound V, N-(3-(6-(4-(2-(9-(3-(2,4-Dioxotetrahydropyrimidin-1(2H)-yl)-4-methoxybenzoyl)-3,9-diazaspiro[5.5]undecan-3-yl)ethyl)phenyl)-7H-pyrrolo[2,3-d]pyrimidin-4-yl)-5-fluoro-2-methylphenyl)-2-fluoro-4-(2-hydroxypropan-2-yl)benzamide] as the molecule, how does the “Dosing frequency to achieve sustained 90% regression” value (i.v.) read?
The value was 2qw (85%).

And the “Dosing frequency to achieve sustained 90% regression” value (s.c.)?
Its value is “Not tolerated”.
